Laboratory results from patent US8623326B2 (University of Western Ontario, priority 2008, dated 2014).
Where a SMILES comes first, the peptide text is derived from it. [ ]: non-standard residue; d: D form. The star is where a group is joined. Dap = NC[C@H](N)C(=O)O; X1 = O=C(CCCCCF)*

Target: T1, GHSR (Homo sapiens, UniProt Q92847)
T1 construct: expressed in transfected cells; host or cells: CHO-K1
Assay: Radioligand binding assay (125I-ghrelin displacement)
Details: 125I-ghrelin (human) radioligand; for IC50: read-out: IC50 (nM), binding affinity of fluorine bearing ghrelin analogues, human recombinant CHO-K1 cells as receptor source, 18a-c semi-quantitative from % inhibition at 10^-5 to 10^-8 M, duplicated
Description: Radioligand Binding Assay.
IC50 values were determined by a non-linear, least squares regression analysis using MathIQ™ (ID Business Solutions Ltd., UK).

T1 sequence (Q92847 whole entry): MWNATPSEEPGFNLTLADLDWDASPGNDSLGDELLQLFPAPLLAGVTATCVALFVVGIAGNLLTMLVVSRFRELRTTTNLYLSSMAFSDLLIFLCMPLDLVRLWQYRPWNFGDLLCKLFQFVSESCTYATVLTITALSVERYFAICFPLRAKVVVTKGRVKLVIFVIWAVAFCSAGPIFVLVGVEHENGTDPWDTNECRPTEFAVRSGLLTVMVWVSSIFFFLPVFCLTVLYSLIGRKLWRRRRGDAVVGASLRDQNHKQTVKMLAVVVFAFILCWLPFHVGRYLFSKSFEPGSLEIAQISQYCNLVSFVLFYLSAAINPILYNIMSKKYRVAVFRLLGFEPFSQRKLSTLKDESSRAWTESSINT

inhibition at 2 µM (at 2000 nM) [%]	IC50 [nM]	SMILES
~20		CC(C)C[C@H](NC(=O)[C@H](Cc1ccccc1)NC(=O)[C@H](CNC(=O)CCCCCF)NC(=O)[C@H](CO)NC(=O)CN)C(N)=O [Cmpd 17, Ghrelin(1-5)-6C—F] (H-GS[Dap](X1)FL-NH2)
	147	CC(C)C[C@H](NC(=O)[C@H](Cc1ccccc1)NC(=O)[C@H](CNC(=O)CCCCCF)NC(=O)[C@H](CO)NC(=O)CN)C(=O)N[C@@H](CO)C(=O)N1CCC[C@H]1C(=O)N[C@@H](CCC(=O)O)C(=O)N[C@@H](Cc1c[nH]cn1)C(=O)N[C@@H](CCC(N)=O)C(=O)N[C@@H](CCCNC(=N)N)C(=O)N[C@H](C(=O)N[C@@H](CCC(N)=O)C(=O)N[C@@H](CCC(N)=O)C(N)=O)C(C)C [Cmpd 18a, Ghrelin(1-14)-6C—F]
	39.6	CC(C)C[C@H](NC(=O)[C@H](Cc1ccccc1)NC(=O)[C@H](CNC(=O)CCCCCCCCF)NC(=O)[C@H](CO)NC(=O)CN)C(=O)N[C@@H](CO)C(=O)N1CCC[C@H]1C(=O)N[C@@H](CCC(=O)O)C(=O)N[C@@H](Cc1c[nH]cn1)C(=O)N[C@@H](CCC(N)=O)C(=O)N[C@@H](CCCNC(=N)N)C(=O)N[C@H](C(=O)N[C@@H](CCC(N)=O)C(=O)N[C@@H](CCC(N)=O)C(N)=O)C(C)C [Cmpd 18b, Ghrelin(1-14)-9C—F]

SMILES	inhibition at 2 µM (at 2000 nM) [%]	IC50 [nM]
CC(C)C[C@H](NC(=O)[C@H](Cc1ccccc1)NC(=O)[C@H](CNC(=O)CCCCCCCCCCCF)NC(=O)[C@H](CO)NC(=O)CN)C(=O)N[C@@H](CO)C(=O)N1CCC[C@H]1C(=O)N[C@@H](CCC(=O)O)C(=O)N[C@@H](Cc1c[nH]cn1)C(=O)N[C@@H](CCC(N)=O)C(=O)N[C@@H](CCCNC(=N)N)C(=O)N[C@H](C(=O)N[C@@H](CCC(N)=O)C(=O)N[C@@H](CCC(N)=O)C(N)=O)C(C)C [Cmpd 18c, Ghrelin(1-14)-12C—F]		27.9
